In patent US20250042896A1, “POLYCYCLIC COMPOUND AS CBL-B INHIBITOR” (HAINAN SIMCERE ZAIMING PHARMACEUTICAL CO., LTD., priority 2021, published 2025):

Legend:
[1] = molecular target: Cbl-b protein and UbcH5B-Ub (Homo sapiens (Human), UniProt Q13191); assay: Cbl-b activity assay (HTRF, interaction between Cbl-b protein and UbcH5B-Ub); format: biochemical; conditions: inhibition of interaction between Biotin-Cbl-b protein and Eu-Ubquitin-UbcH5B, HTRF signal 665 nm/615 nm
Method: Experiment purpose: Testing of inhibitory activity of compounds on the interaction between Cbl-b protein and UbcH5B-Ub
Experimental method: Eu-Ubquitin-UbcH5B was prepared by incubating Eu-Ubquitin (Cisbio) with UbcH5B (ENZO), E1 (ENZO) at 37° C. for 4 hours. Eu-Ubquitin-UbcH5B was aliquoted and stored at −80° C. Cbl-b activity assay was performed in 384-well plates (Perkin Elmer). 100 nL of 3-fold serial dilutions of compounds (final concentration 10 μM-0.5 nM, starting concentration 10 μM, 3-fold dilution, 10 points, 10th point being 0.5 nM) and 5 μL of 50 nM Biotin-Cbl-b protein (Sigma) were incubated for 1 hour at room temperature, and the reaction buffer was 50 mM HEPES pH 7.0 (Gibco), 100 mM NaCl (Sigma), 0.01% Triton X-100 (Sigma), 0.01% BSA (Sigma) and 1 mM DTT (Invitrogen). 5 μL of Src mixed solution (40 nM Src (R&D), 2 mM ATP (Sigma), 10 mM MgCl2 (Sigma)) was added to the reaction plate and incubated at room temperature for 3 hours. 10 μL of detection solution (12.5 nM Strepdividin-XL665 (Cisbio), 500 nM Eu-Ubquitin-UbcH5B, […] (Invitrogen), 0.004% BSA (Sigma)) was added to the reaction plate, incubated overnight at room temperature, and the HTRF signal (665 nm/615 nm) was read on Envision (Perkin Elmer). IC50 was calculated using IDBS XLfit.

Jurkat T cells = assay: Jurkat T activation assay (IL-2 release, ELISA); format: cell-based; conditions: IL-2 release of Jurkat T cells, Anti-Human CD3/CD28 stimulation, 48 hours, IL-2 ELISA
Method: Experiment purpose: Testing of effect of compounds on IL-2 release and activation of Jurkat T cells
Experimental method: 96-well cell plates (Corning) were coated with 2 μg/mL Anti-Human CD3 Clone OKT3 (BD) at 37° C. for 4 hours. 3-fold serial dilutions of compounds (final concentration 10 μM-4.6 nM, starting concentration 10 μM, 3-fold dilution, 8 points, 8th point being 4.6 nM) and 220 μL of 1.11×10^6/mL Jurkat T cells (ATCC) were incubated for 1 hour, 5 μL of 45 μg/mL Anti-Human CD28 Clone CD28.2 (BD) was added, mixed evenly, 100 μL was transferred to the aforementioned CD3-coated cell plate, cultured in a cell incubator at 37° C. for 48 hours, and the supernatant was collected and the IL-2 release was detected using an IL-2 ELISA kit (BD). EC50 was analyzed using Prism.

Chain of Cbl-b protein and UbcH5B-Ub (Q13191 whole entry, species assumed): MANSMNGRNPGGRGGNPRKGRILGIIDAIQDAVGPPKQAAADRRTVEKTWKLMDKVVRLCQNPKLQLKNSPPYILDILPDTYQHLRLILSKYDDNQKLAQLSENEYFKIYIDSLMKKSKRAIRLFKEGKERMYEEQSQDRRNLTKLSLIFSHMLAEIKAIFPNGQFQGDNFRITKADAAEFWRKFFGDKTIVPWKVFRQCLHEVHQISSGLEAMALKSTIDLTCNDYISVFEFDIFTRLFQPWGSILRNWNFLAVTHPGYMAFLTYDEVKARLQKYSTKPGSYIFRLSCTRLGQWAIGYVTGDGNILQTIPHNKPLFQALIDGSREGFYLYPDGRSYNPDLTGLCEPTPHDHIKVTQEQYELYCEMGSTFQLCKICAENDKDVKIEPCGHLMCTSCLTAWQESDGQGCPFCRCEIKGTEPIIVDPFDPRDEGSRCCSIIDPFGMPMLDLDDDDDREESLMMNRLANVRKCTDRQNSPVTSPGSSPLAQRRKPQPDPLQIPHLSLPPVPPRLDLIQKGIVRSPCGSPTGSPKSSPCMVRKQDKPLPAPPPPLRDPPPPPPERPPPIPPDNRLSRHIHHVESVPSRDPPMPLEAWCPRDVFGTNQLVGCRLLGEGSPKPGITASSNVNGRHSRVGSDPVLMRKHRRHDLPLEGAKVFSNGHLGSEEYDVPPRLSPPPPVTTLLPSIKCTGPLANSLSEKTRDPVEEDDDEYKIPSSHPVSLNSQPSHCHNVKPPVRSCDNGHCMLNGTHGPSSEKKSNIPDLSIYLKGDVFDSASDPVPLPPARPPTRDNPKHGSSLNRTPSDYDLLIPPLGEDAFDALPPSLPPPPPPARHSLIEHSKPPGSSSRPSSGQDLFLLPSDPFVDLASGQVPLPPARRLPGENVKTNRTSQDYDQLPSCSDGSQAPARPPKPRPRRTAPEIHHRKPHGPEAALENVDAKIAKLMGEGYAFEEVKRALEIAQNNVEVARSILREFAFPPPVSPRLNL

Row | Molecule | IC50 [1] [nM] | EC50 (Jurkat T cells) [nM]
1 | Cc1cc(CN2CCC[C@H](C)C2)cc2c(=O)c(-c3cccc(C(F)(c4nncn4C)C(F)(F)F)c3)coc12 (stereo partly drawn) [Compound 128, 8-methyl-6-(((S)-3-methylpiperidin-1-yl)methyl)-3-(3-(1,2,2,2-tetrafluoro-1-(4-methyl-4H-1,2,4-triazol-3-yl)ethyl)phenyl)-4H-chromen-4-one] | 28.6 | 279
2 | Cc1c(F)c(CN2CCC[C@H](C)C2)cc2c(=O)c(-c3cccc(C(c4nncn4C)C4CC4)c3)coc12 (stereo partly drawn) [Compound 124, 3-(3-(cyclopropyl(4-methyl-4H-1,2,4-triazol-3-yl)methyl)phenyl)-7-fluoro-8-methyl-6-(((S)-3-methylpiperidin-1-yl)methyl)-4H-chromen-4-one] | 19.7 | 383
3 | CC1CC(c2cccc(-c3cnc4c(C(F)(F)F)cc(CN5CC6CC(C)(C6)C5)cn4c3=O)c2)(c2nncn2C)C1 (stereo not shown) [Compound 62] | 23.6 | 525
4 | C[C@H]1CCCN(Cc2cc(C(F)(F)F)c3ncc(-c4cccc([C@]5(c6nncn6C)C[C@@H](C)C5)c4)c(=O)n3c2)C1 [Compound 2-P1] | 27.1 | 426
5 | Cc1cc(CN2CCC[C@H](C)C2)cc2c(=O)c(-c3cncc(C4(c5nncn5C)CC(C)C4)c3)coc12 (stereo partly drawn) [Compound 65, (S)-8-methyl-3-(5-(3-methyl-1-(4-methyl-4H-1,2,4-triazol-3-yl)cyclobutyl)pyridin-3-yl)-6-((3-methylpiperidin-1-yl)methyl)-4H-chromen-4-one] | 17 | 265
6 | Cc1cc(CN2CCC[C@H](C)C2)cc2c(=O)c(-c3cccc(C4(c5nncn5C)CC(C)C4)c3)coc12 (stereo partly drawn) [Compound 58, (S)-8-methyl-3-(3-(3-methyl-1-(4-methyl-4H-1,2,4-triazol-3-yl)cyclobutyl)phenyl)-6-((3-methylpiperidin-1-yl)methyl)-4H-chromen-4-one] | 9.7 | 112
7 | Cc1c(F)c(CNC2(C)CCC2)cc2c(=O)c(-c3cccc([C@]4(c5nncn5C)C[C@@H](C)C4)c3)coc12 [Compound 122, 7-fluoro-8-methyl-3-(3-(cis-3-methyl-1-(4-methyl-4H-1,2,4-triazol-3-yl)cyclobutyl)phenyl)-6-(((1-methylcyclobutyl)amino)methyl)-4H-chromen-4-one] | 12.3 | 555
8 | Cc1cc(CN2CCC[C@H](C)C2)cc2c(=O)c(-c3cccc(C(F)(c4nncn4C)C4CC4)c3)coc12 (stereo partly shown) [Compound 120] | 17.5 | 688
9 | Cc1c(F)c(CN2CCC[C@H](C)C2)cc2c(=O)c(-c3cccc(C4(c5nncn5C)CC(C)C4)c3)coc12 (stereo in doubt) [Compound 121, 7-fluoro-8-methyl-3-(3-(cis-3-methyl-1-(4-methyl-4H-1,2,4-triazol-3-yl)cyclobutyl)phenyl)-6-(((s)-3-methylpiperidin-1-yl)methyl)-4H-chromen-4-one] | 10.1 | 250
10 | Cc1cc(CN2CCC[C@H](C)C2)cc2c(=O)c(-c3cccc(C4(c5nncn5C)CC(F)C4)c3)coc12 (stereo partly drawn) [Compound 69, 3-(3-((1R,3S)-3-fluoro-1-(4-methyl-4H-1,2,4-triazol-3-yl)cyclobutyl)phenyl)-8-methyl-6-(((S)-3-methylpiperidin-1-yl)methyl)-4H-chromen-4-one] | 15 | 552
11 | CC(NC1(C)CCC1)c1cc(C(F)(F)F)c2ncc(-c3cccc([C@]4(c5nncn5C)C[C@@H](C)C4)c3)c(=O)n2c1 (stereo partly drawn) [Compound 126, 3-(3-(cis-3-methyl-1-(4-methyl-4H-1,2,4-triazol-3-yl)cyclobutyl)phenyl)-7-(1-((1-methylcyclobutyl)amino)ethyl)-9-(trifluoromethyl)-4H-pyrido[1,2-a]pyrimidin-4-one] | 11.1 | 80.5
12 | Cc1cc(C(C)NC2(C)CCC2)cc2c(=O)c(-c3cccc([C@]4(c5nncn5C)C[C@@H](C)C4)c3)coc12 (stereo partly drawn) [Compound 123, 8-methyl-3-(3-(cis-3-methyl-1-(4-methyl-4H-1,2,4-triazol-3-yl)cyclobutyl)phenyl)-6-(1-((1-methylcyclobutyl)amino)ethyl)-4H-chromen-4-one] | 5.4 | 53.6
13 | CC1CC(c2cccc(-c3cnc4c(C(F)(F)F)cc(CN5CCC[C@H](C)C5)cn4c3=O)c2)(c2nncn2C)C1 (stereo partly drawn) [Compound 2, 3-[3-[3-methyl-1-(4-methyl-4H-1,2,4-triazol-3-yl)cyclobutyl]phenyl]-7-[[(3S)-3-methyl-1-piperidyl]methyl]-9-(trifluoromethyl)pyrido[1,2-a]pyrimidin-4-one] | 40.3 | 634
14 | (1S,3R)-3-(4-methyl-4H-1,2,4-triazol-3-yl)-3-(3-(8-methyl-6-(((S)-3-methylpiperidin-1-yl)methyl)-4-oxo-4H-chromen-3-yl)phenyl)cyclobutylacetonitrile [Compound 68] | 17.8 | 456
